Assay results taken from ChEMBL document CHEMBL1201862, “PubChem BioAssay data set” (2004).
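Dose response: 5 concentrations. Exposure: 48 h. Format: 96-well plates. Endpoint: linear interpolation; highest concentration if not reached. GI50 = concentration required for 50% inhibition of growth.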 Activity calls are given as the source filed them. Cut-off read from the data, not from the text of the source: active = GI50 up to about 1.1 µM and inactive = higher.

How the values were obtained:
Assay in all cases: DTP human tumour cell line panel, 48 h
SNB-75 = tested on: SNB-75
NCI/ADR-RES = tested on: NCI/ADR-RES
HCC 2998 = tested on: HCC 2998
NCI-H522 = tested on: NCI-H522
DU-145 = tested on: DU-145
SF-295 = tested on: SF-295
OVCAR-8 = tested on: OVCAR-8
U-251 = tested on: U-251
Hs-578T = tested on: Hs-578T
LOX IMVI = tested on: LOX IMVI
RXF 393 = tested on: RXF 393
KM12 = tested on: KM12
SF-268 = tested on: SF-268
HCT-15 = tested on: HCT-15
HOP-92 = tested on: HOP-92
MDA-MB-231 = tested on: MDA-MB-231
CCRF-CEM = tested on: CCRF-CEM
UACC-62 = tested on: UACC-62
RPMI-8226 = tested on: RPMI-8226

Row | SMILES | GI50 (SNB-75) | GI50 (NCI/ADR-RES) | GI50 (HCC 2998) | GI50 (NCI-H522) | GI50 (DU-145) | GI50 (SF-295) | GI50 (OVCAR-8) | GI50 (U-251) | GI50 (Hs-578T) | GI50 (LOX IMVI) | GI50 (RXF 393) | GI50 (KM12) | GI50 (SF-268) | GI50 (HCT-15) | GI50 (HOP-92) | GI50 (MDA-MB-231) | GI50 (CCRF-CEM) | GI50 (UACC-62) | GI50 (RPMI-8226)
1 | COc1cc(C2c3cc4c(cc3CC3COC(=O)N32)OCO4)cc(OC)c1OC (stereo unspecified) | 14.8 µM (inactive) | 1.58 µM (inactive) | 2.93 µM (inactive) | 1.57 µM (inactive) | 5.33 µM (inactive) | 0.729 µM (active) | 4.03 µM (inactive) | 3.79 µM (inactive) | 2.52 µM (inactive) | 3140 nM (inactive) | 1.57 µM (inactive) | 2.44 µM (inactive) | 8.04 µM (inactive) | 3.08 µM | 14.1 µM (inactive) | 3.71 µM (inactive) | 2560 nM (inactive) | 2.61 µM (inactive) | 3.13 µM (inactive)
2 | O=C(/C=C1\C[C@H]2C=Nc3ccccc3C(=O)N2C1)NCCCCNC(=O)/C=C1\C[C@H]2C=Nc3ccccc3C(=O)N2C1 | 16.3 µM (inactive) | 22.3 µM (inactive) | 18 µM (inactive) | 1.4 µM (inactive) | 15.2 µM (inactive) | 19.5 µM (inactive) | 4.93 µM (inactive) | 3.37 µM (inactive) | 29.4 µM (inactive) | 1970 nM (inactive) | 6.15 µM (inactive) | 17.5 µM (inactive) | 9.95 µM (inactive) | 8.89 µM | 7.93 µM (inactive) | 0.494 µM (active) | 1390 nM (inactive) | 15.3 µM (inactive) | 4.24 µM (inactive)
3 | O=C(/C=C1\N=C(c2ccccc2)N(c2ccc3c(c2)Sc2cc(N4C(=O)/C(=C/C(=O)/C=C/c5ccccc5)N=C4c4ccccc4)ccc2N3)C1=O)/C=C/c1ccccc1 | 17.3 µM (inactive) | 41.6 µM (inactive) | > 100 µM (inactive) | 20.9 µM (inactive) | > 100 µM (inactive) | 23.4 µM (inactive) | 42.5 µM (inactive) | 24.2 µM (inactive) | 33.2 µM (inactive) | 30500 nM (inactive) | 27.3 µM (inactive) | > 100 µM (inactive) | 69.5 µM (inactive) | > 100 µM | 67.5 µM (inactive) | 38 µM (inactive) | 24400 nM (inactive) | 18.2 µM (inactive) | 31.6 µM (inactive)
4 | C(/Cc1ccc2c(c1)OCO2)=N\N=C1NCCN1 | 33.7 µM (inactive) | > 100 µM (inactive) | 92.3 µM (inactive) | > 100 µM (inactive) | > 100 µM (inactive) | 42.4 µM (inactive) | > 100 µM (inactive) | > 100 µM (inactive) | > 100 µM (inactive) | 41200 nM (inactive) | > 100 µM (inactive) | > 100 µM (inactive) | > 100 µM (inactive) | > 100 µM | 34.8 µM (inactive) | > 100 µM (inactive) | > 100000 nM (inactive) | > 100 µM (inactive) | 83.2 µM (inactive)
5 | [O-]c1c2cc(-[n+]3c(-c4ccccc4)cc(-c4ccccc4)cc3-c3ccccc3)cc1CO[C@@H](c1ccccc1)[C@H](c1ccccc1)OCc1cccc(n1)CO[C@@H](c1ccccc1)[C@H](c1ccccc1)OC2 | 0.0682 µM (active) | 1.97 µM (inactive) | 0.453 µM (active) | 0.0353 µM (active) | 0.326 µM (active) | 0.102 µM (active) | 0.0488 µM (active) | 0.0285 µM (active) | 0.676 µM (active) | 49.8 nM (active) | 0.219 µM (active) | 0.0383 µM (active) | 0.0689 µM (active) | 0.74 µM | 0.0322 µM (active) | 0.16 µM (active) | 31.4 nM (active) | 0.0931 µM (active) | 0.0135 µM (active)
6 | CCCC(=O)Nc1cc(/C=C/C(=O)N2CC(CCl)c3c2cc(OC(C)=O)c2[nH]cc(C)c32)n(C)c1 (stereo unspecified) | 5.77e-05 µM (active) | 0.00024 µM (active) | < 2.5e-05 µM (active) | < 2.5e-05 µM (active) | < 2.5e-05 µM (active) | 4.52e-05 µM (active) | < 2.5e-05 µM (active) | < 2.5e-05 µM (active) | 6.56e-05 µM (active) | < 0.025 nM (active) | < 2.5e-05 µM (active) | 8.73e-05 µM (active) | < 2.5e-05 µM (active) | 0.000547 µM | 4.28e-05 µM (active) | 6.44e-05 µM (active) | < 0.025 nM (active) | < 2.5e-05 µM (active) | 0.000171 µM (active)
7 | CCCCCCNC(=O)c1cc(NCc2cc(OC)ccc2OC)ccc1O | 26.1 µM (inactive) | 16.9 µM (inactive) | 26.6 µM (inactive) | 14.3 µM (inactive) | 24.2 µM (inactive) | 12 µM (inactive) | 20.7 µM (inactive) | 17.9 µM (inactive) | 28 µM (inactive) | 16600 nM (inactive) | 18.7 µM (inactive) | 24.8 µM (inactive) | 13.3 µM (inactive) | 21.1 µM | 6.98 µM (inactive) | 18.7 µM (inactive) | 20500 nM (inactive) | 15 µM (inactive) | 12.2 µM (inactive)
8 | c1ccc2c(OCC3CO3)ccc(OCC3CO3)c2c1 (stereo unspecified) | 14.6 µM (inactive) | 4.18 µM (inactive) | 11.8 µM (inactive) | 10.4 µM (inactive) | 2.36 µM (inactive) | 2.86 µM (inactive) | 2.2 µM (inactive) | 2.32 µM (inactive) | 5.32 µM (inactive) | 515 nM (active) | 2.63 µM (inactive) | 4.14 µM (inactive) | 0.571 µM (active) | 3.85 µM | 5.57 µM (inactive) | 10.5 µM (inactive) | 270 nM (active) | 3.06 µM (inactive) | 3.04 µM (inactive)
9 | CCOC(=O)c1c(NC(=O)c2ccccc2)c(C#N)c2n1CCCCC2 | > 100 µM (inactive) | > 100 µM (inactive) | > 100 µM (inactive) | > 100 µM (inactive) | > 100 µM (inactive) | > 100 µM (inactive) | > 100 µM (inactive) | > 100 µM (inactive) | > 100 µM (inactive) | > 100000 nM (inactive) | > 100 µM (inactive) | > 100 µM (inactive) | > 100 µM (inactive) | > 100 µM | > 100 µM (inactive) | > 100 µM (inactive) | > 100000 nM (inactive) | > 100 µM (inactive) | > 100 µM (inactive)
10 | COc1ccc(NC/C=C/C(=C/COC(C)=O)OC(C)=O)cc1 | 7.23 µM (inactive) | 2.59 µM (inactive) | 3.03 µM (inactive) | 2.72 µM (inactive) | 3.11 µM (inactive) | 2.12 µM (inactive) | 4.23 µM (inactive) | 2.44 µM (inactive) | 2.12 µM (inactive) | 2130 nM (inactive) | 1.6 µM (inactive) | 0.448 µM (active) | 2.52 µM (inactive) | 2.41 µM | 1.8 µM (inactive) | 1.78 µM (inactive) | 1770 nM (inactive) | 3.82 µM (inactive) | 0.252 µM (active)
11 | O=C(O)CNC(=O)CO/N=C1/C(=C2/C(=O)Nc3ccccc32)Nc2ccccc21 | > 100 µM (inactive) | > 100 µM (inactive) | 47 µM (inactive) | > 100 µM (inactive) | > 100 µM (inactive) | > 100 µM (inactive) | > 100 µM (inactive) | > 100 µM (inactive) | > 100 µM (inactive) | > 100000 nM (inactive) | 55.1 µM (inactive) | 4.9 µM (inactive) | > 100 µM (inactive) | 51.8 µM | > 100 µM (inactive) | > 100 µM (inactive) | 42800 nM (inactive) | > 100 µM (inactive) | > 100 µM (inactive)
12 | CC(=O)OCC1OC(O[C@@H]2c3c(O)c4c(c(O)c3C3=C(NN(c5ccc([N+](=O)[O-])cc5[N+](=O)[O-])[Se]3=O)[C@@]2(C)O)C(=O)c2ccccc2C4=O)C(OC(C)=O)C(OC(C)=O)C1OC(C)=O (stereo partly specified) | 0.394 µM (active) | 0.336 µM (active) | 0.228 µM (active) | 0.124 µM (active) | 0.365 µM (active) | 0.21 µM (active) | 0.191 µM (active) | 0.14 µM (active) | 0.303 µM (active) | 147 nM (active) | 0.31 µM (active) | 0.338 µM (active) | 0.139 µM (active) | 0.211 µM | 0.451 µM (active) | 0.346 µM (active) | 35.2 nM (active) | 0.27 µM (active) | 0.16 µM (active)
13 | Cc1ccc2c3ccc4c(c3n(C)c2c1)C(=O)C=CC4=O | > 10 µM (inactive) | > 5.89 µM (inactive) | > 10 µM (inactive) | 2.95 µM (inactive) | > 10 µM (inactive) | > 10 µM (inactive) | 4.47 µM (inactive) | > 10 µM (inactive) | > 10 µM (inactive) | > 10000 nM (inactive) | 4.25 µM (inactive) | > 10 µM (inactive) | > 10 µM (inactive) | 4.6 µM | 3.1 µM (inactive) | 3.97 µM (inactive) | 335 nM (active) | > 8.22 µM (inactive) | 2.39 µM (inactive)
14 | O=C1C(Cl)=C(NCCO)C(=O)c2c(O)ccc(O)c21 | 4.38 µM (inactive) | 5.18 µM (inactive) | 3.1 µM (inactive) | > 10 µM (inactive) | 2.36 µM (inactive) | 1.95 µM (inactive) | 3.84 µM (inactive) | 6.27 µM (inactive) | 6.56 µM (inactive) | 1640 nM (inactive) | 1.96 µM (inactive) | 2.05 µM (inactive) | 3.97 µM (inactive) | 2.53 µM | > 10 µM (inactive) | 1.95 µM (inactive) | 4140 nM (inactive) | 1.7 µM (inactive) | 3.12 µM (inactive)
